Reference: BigSolDB 2.1

O=c1cc(CO)occ1O
Details | solubility (mole fraction)
in 1,4-dioxane, 288.15 K | 0.00698
in 1,4-dioxane, 293.15 K | 0.0086
in 1,4-dioxane, 298.15 K | 0.0103
in 1,4-dioxane, 303.15 K | 0.0121
in 1,4-dioxane, 308.15 K | 0.0153
in 1,4-dioxane, 313.15 K | 0.018
in 1,4-dioxane, 318.15 K | 0.0209
in 2-ethoxyethanol, 278.15 K | 0.0134
in 2-ethoxyethanol, 283.15 K | 0.015
in 2-ethoxyethanol, 288.15 K | 0.0177
in 2-ethoxyethanol, 293.15 K | 0.0204
in 2-ethoxyethanol, 298.15 K | 0.0233
in 2-ethoxyethanol, 303.15 K | 0.0261
in 2-ethoxyethanol, 308.15 K | 0.03
in 2-ethoxyethanol, 313.15 K | 0.034
in 2-ethoxyethanol, 318.15 K | 0.0381
in 2-ethoxyethanol, 323.15 K | 0.0435
in 2-methoxyethanol, 278.15 K | 0.0181
in 2-methoxyethanol, 283.15 K | 0.0214
in 2-methoxyethanol, 288.15 K | 0.0252
in 2-methoxyethanol, 293.15 K | 0.0287
in 2-methoxyethanol, 298.15 K | 0.0331
in 2-methoxyethanol, 303.15 K | 0.0377
in 2-methoxyethanol, 308.15 K | 0.0431
in 2-methoxyethanol, 313.15 K | 0.0491
in 2-methoxyethanol, 318.15 K | 0.0559
in 2-methoxyethanol, 323.15 K | 0.0625
in DMAc, 278.15 K | 0.148
in DMAc, 283.15 K | 0.157
in DMAc, 288.15 K | 0.165
in DMAc, 293.15 K | 0.174
in DMAc, 298.15 K | 0.184
in DMAc, 303.15 K | 0.194
in DMAc, 308.15 K | 0.205
in DMAc, 313.15 K | 0.216
in DMAc, 318.15 K | 0.228
in DMAc, 323.15 K | 0.24
in DMF, 278.15 K | 0.0977
in DMF, 283.15 K | 0.106
in DMF, 288.15 K | 0.114
in DMF, 293.15 K | 0.123
in DMF, 298.15 K | 0.135
in DMF, 303.15 K | 0.147
in DMF, 308.15 K | 0.157
in DMF, 313.15 K | 0.168
in DMF, 318.15 K | 0.18
in DMF, 323.15 K | 0.193
in DMSO, 293.15 K | 0.238
in DMSO, 298.15 K | 0.249
in DMSO, 303.15 K | 0.259
in DMSO, 308.15 K | 0.268
in DMSO, 313.15 K | 0.28
in DMSO, 318.15 K | 0.292
in DMSO, 323.15 K | 0.303
in DMSO, 328.15 K | 0.316
in DMSO, 333.15 K | 0.331
in NMP, 278.15 K | 0.17
in NMP, 283.15 K | 0.179
in NMP, 288.15 K | 0.185
in NMP, 293.15 K | 0.193
in NMP, 298.15 K | 0.201
in NMP, 303.15 K | 0.208
in NMP, 308.15 K | 0.216
in NMP, 313.15 K | 0.223
in NMP, 318.15 K | 0.232
in NMP, 323.15 K | 0.241
in acetic acid, 293.15 K | 0.0139
in acetic acid, 298.15 K | 0.0169
in acetic acid, 303.15 K | 0.0204
in acetic acid, 308.15 K | 0.0246
in acetic acid, 313.15 K | 0.0293
in acetic acid, 318.15 K | 0.0353
in acetic acid, 323.15 K | 0.0425
in acetic acid, 328.15 K | 0.0511
in acetic acid, 333.15 K | 0.0613
in acetone, 278.15 K | 0.00224
in acetone, 283.15 K | 0.00276
in acetone, 288.15 K | 0.00324
in acetone, 293.15 K | 0.00383
in acetone, 298.15 K | 0.00455
in acetone, 303.15 K | 0.00556
in acetone, 308.15 K | 0.00686
in acetone, 313.15 K | 0.008
in acetone, 318.15 K | 0.00932
in acetone, 323.15 K | 0.0106
in ethanol, 278.15 K | 0.0031
in ethanol, 283.15 K | 0.00374
in ethanol, 288.15 K | 0.00459
in ethanol, 293.15 K | 0.00595
in ethanol, 298.15 K | 0.00739
in ethanol, 303.15 K | 0.00893
in ethanol, 308.15 K | 0.0108
in ethanol, 313.15 K | 0.013
in ethanol, 318.15 K | 0.0158
in ethanol, 323.15 K | 0.0191
in ethyl acetate, 278.15 K | 0.000804
in ethyl acetate, 283.15 K | 0.00105
in ethyl acetate, 288.15 K | 0.00137
in ethyl acetate, 293.15 K | 0.00169
in ethyl acetate, 298.15 K | 0.00201
in ethyl acetate, 303.15 K | 0.00242
in ethyl acetate, 308.15 K | 0.00296
in ethyl acetate, 313.15 K | 0.00338
in ethyl acetate, 318.15 K | 0.00411
in ethyl acetate, 323.15 K | 0.00497
in methanol, 278.15 K | 0.00492
in methanol, 283.15 K | 0.00606
in methanol, 288.15 K | 0.00737
in methanol, 293.15 K | 0.00891
in methanol, 298.15 K | 0.011
in methanol, 303.15 K | 0.0132
in methanol, 308.15 K | 0.0156
in methanol, 313.15 K | 0.0189
in methanol, 318.15 K | 0.0223
in methanol, 323.15 K | 0.0267
in n-propanol, 278.15 K | 0.00225
in n-propanol, 283.15 K | 0.00281
in n-propanol, 288.15 K | 0.00339
in n-propanol, 293.15 K | 0.00423
in n-propanol, 298.15 K | 0.00524
in n-propanol, 303.15 K | 0.00646
in n-propanol, 308.15 K | 0.00782
in n-propanol, 313.15 K | 0.00964
in n-propanol, 318.15 K | 0.0116
in n-propanol, 323.15 K | 0.0139
in water, 278.15 K | 0.00216
in water, 283.15 K | 0.00276
in water, 288.15 K | 0.00353
in water, 293.15 K | 0.0043
in water, 298.15 K | 0.00553
in water, 303.15 K | 0.00679
in water, 308.15 K | 0.00873
in water, 313.15 K | 0.0113
in water, 318.15 K | 0.0143
in water, 323.15 K | 0.0185
